Reference: patent publication US10654896B2, “FoxP3-binding peptides and uses thereof” (FUNDACIÓN PARA LA INVESTIGACIÓN MÉDICA APLICADA, priority 2016, dated 2020)

Tests used:
[1] = molecular target: T1, FOXP3/Runx1 heterodimerization (Homo sapiens, UniProt Q9BZS1); test: FOXP3/Runx1 heterodimerization inhibition (Alphascreen); format: biochemical; conditions: peptide 100 μM
T1 construct: made in house; host or cells: E. coli BL21 (DE3)
T1 sequence (Q9BZS1 1-431): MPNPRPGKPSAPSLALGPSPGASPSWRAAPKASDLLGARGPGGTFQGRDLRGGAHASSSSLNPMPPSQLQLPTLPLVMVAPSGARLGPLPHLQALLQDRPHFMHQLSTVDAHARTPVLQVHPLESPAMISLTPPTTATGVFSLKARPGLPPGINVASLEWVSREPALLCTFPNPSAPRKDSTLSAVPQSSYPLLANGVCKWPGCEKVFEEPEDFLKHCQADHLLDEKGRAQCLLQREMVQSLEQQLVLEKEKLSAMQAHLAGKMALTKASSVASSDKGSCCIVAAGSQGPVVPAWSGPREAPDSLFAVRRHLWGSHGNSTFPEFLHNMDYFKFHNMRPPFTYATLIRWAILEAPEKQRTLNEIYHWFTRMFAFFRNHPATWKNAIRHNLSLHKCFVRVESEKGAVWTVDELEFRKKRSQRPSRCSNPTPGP
From the text: (§1) Plasmid pET20b FOXP3-His was generated to produce the human FOXP3 tagged with 6 histidines at the C terminus of the protein. Briefly, plasmid pDEST15-FOXP3 (provided by Dr. Casal, Madrid, Spain) was used as template to amplify FOXP3 by PCR using the primers Upper FOXP3 Ndel catatgcccaaccccaggc (SEQ ID NO: 55) and Lower FOXP3 […] (SEQ ID NO: 56). The resulting fragment was subcloned in pET20b at Ndel and NotI sites. pET45b His-Runx1 was obtained by PCR of activated human CD4 T cells obtained from healthy volunteers (after the signature of an informed consent) using the primers Upper Runx1 atgcgtatccccgtagatg (SEQ ID NO: 57) and Lower Runx1 […] (SEQ ID NO: 58) and the fragment was cloned in pcDNA3.1. Then, pET45b and pcDNA3.1-Runx1 were digested with BamHI and NotI and ligated to obtain pET45b-Runx1. Plasmids were used to transform BL21 cells (DE3; Novagen, Schwalbach, Germany) for the expression of the recombinant protein. The transformed BL21 cells were grown in LB medium at 37° C. (1 liter of final culture medium) (with ampicilin 0.1 mg/ml). Once the OD of the culture was between 0.5 and 1.0, IPTG (0.4 mM, final concentration) was added. Bacteria were then cultured overnight in agitation and centrifuged for 10 min at 8000 rpm. Cell pellet was then resuspended in 4 ml Tris-HCl 0.1 M and frozen at −80° C. Cell pellet was then thawed and incubated with lisozyme (25 KU) and a protease inhibitor cocktail for 15 min at 30° C. before cell lysis induced with a French-press. The resultant pool was then centrifuged during 20 min at 11.000 rpm). The recombinant protein was purified from the soluble fraction of French-press cell extracts by affinity chromatography (Histrap, Pharmacia) following manufacturer's instructions and using an FPLC platform (AKTA, Pharmacia). Plasmid pDEST15-FOXP3 encoding the fusion protein GST-FOXP3 (GST fused to the isoform A from human FOXP3 gene), was transformed into BL21 cells for the expression of the recombinant protein. GST-FOXP3 protein was purified from the soluble fraction of cell extracts obtained, as described above, by affinity chromatography (GSTrap; Amersham, Piscataway, N.J.) using a fast protein liquid chromatography platform (AKTA; Amersham) following manufacturer's instructions. The eluted proteins were desalted using Hitrap desalting columns (Pharmacia) and analyzed by SDS-PAGE using Coomassie blue (Bio-Safe Coomassie reagent; Bio-Rad, Hercules, Calif.) and by Western blot.
It has been described that dimerization of FOXP3 is required for its function as a transcriptional regulator. Moreover, interaction between FOXP3 and the transcription factor Runx1, is crucially required for normal hematopoiesis including thymic T-cell development, but also for Treg suppressor activity (Reviewed in Lozano et al, Front Oncol. 2013, 3:294). Both activities are mediated by the intermediate region of Foxp3, which is the area of interaction between P60 and Foxp3. Thus, we studied the effect of P60 and their mutants on the FOXP3/Runx1 heterodimerization, as well as FOXP3/FOXP3 homodimerization by Alphascreen technology according to the manufacturer's instructions (Perkin Elmer, Benelux). AlphaScreen™ is a bead-based technology that is designed to measure the proximity of donor and acceptor beads conjugated to biomolecules of interest.
To measure Foxp3-Runx1 interactions, Foxp3-GST and […] proteins were used.
Recombinant Runx1 expressed in E. Coli with a hexa-histidine tag (obtained as disclosed in section (1) above) was captured by nickel chelate acceptor beads following manufacturer's instructions, whereas the recombinant FOXP3 expressed with a GST tag was captured by glutathione donor beads (Perkin Elmer) following manufacturer's instructions. His-tagged Runx1 (46 nM final concentration) was incubated with 100 nM GST-FOXP3 and the peptides to be tested (added at different concentrations from 1 to 100 μM) for 1 h at room temperature. […]

human FOXP3 (FOXP3-6His) = molecular target: T2, human FOXP3 (FOXP3-6His) (Homo sapiens, UniProt Q9BZS1); test: Peptide binding to FOXP3 by surface plasmon resonance (SPR); conditions: peptides 1-20 μM; ratio to p60 (SEQ ID NO: 1)
T2 construct: 6xHis (C); made in house; host or cells: E. coli BL21 (DE3)
T2 sequence (Q9BZS1 1-431): T1 sequence (Q9BZS1 1-431)
From the text: as §1
Screening of peptide binding to FOXP3 was performed by surface plasmon resonance (SPR) using ProteOn XPR36 (Bio-Rad, Hercules Calif., USA) optical biosensor. Recombinant protein FOXP3-6His was produced and purified from E. coli as disclosed in previous section and was immobilized covalently onto a GLM sensor chip (176-5012, Bio-Rad) using sulfo-NHS and EDC (Bio-Rad) coupling reagents and the manufacturer's instructions. After protein immobilization, chip surface was treated with ethanolamine to deactivate the excess of reactive esters.
Individual solutions of the peptides to be tested (1-20 μM) were injected by triplicate in running buffer (Phosphate buffered saline, 0.005% (v/v) Tween 20, pH 7.4) at a flow of 30 μl/min. The interspot signal (obtained in the chip surface not immobilized with protein) was used as reference. The results are summarized in Table 6 below as the ratio Peptide of the invention/p60.

[2] = Human liver microsomal stability; format: in vitro ADME; conditions: for remaining at 20 min, 1 μM: read-out: % Remaining after 20 min; for remaining at 1 h, 1 μM: 60 min, read-out: % Remaining after 60 min
Description: (§2) The data collected were analyzed to calculate a half-life (t1/2, min) for tested peptides at a final concentration of 1 μM. Briefly, 5 μL of stock solution of tested peptide (10 mM) were diluted in 495 μL of 1:1 Methanol/Water (final concentration of 100 μM, 50% MeOH). Then, 50 μL of this intermediate solution were diluted in 450 μL of 100 mM potassium phosphate buffer to a concentration of 10 μM (working solution, 5% MeOH). The NADPH regenerating system contains β-Nicotinamide adenine dinucleotide phosphate (Sigma, Cat. # N0505), Isocitric acid (Sigma, Cat. #11252) and Isocitric dehydrogenase (Sigma, Cat. #12002) at a final concentration of 1 unit/mL at incubation.
(§3) Human liver microsomes were obtained from BD Gentest (Cat. #452117) and mouse liver microsomes from Xenotech (Cat. # M1000), to a final concentration of 0.7 mg protein/mL. A volume of 10 μL of peptide solution and 80 μL of microsome solution were added to a 96-well plate and incubated for 10 min at 37° C. The reaction was started by the addition of 10 μL of NADPH regenerating system and stopped by the addition of 300 μL of stop solution (ACN at 4° C., including 100 ng/mL Tolbutamide and 100 ng/mL of Labetalol as internal standard) at different incubation times (0, 5, 10, 20, 30 and 60 min). Concentrations of test compound were quantified by LC-MS/MS methodologies (Shimadzu LC 20-AD/API4000) using peak area ratio of analyte/internal standard and the percent loss of parent compound was calculated under each time point to determine the half-life.

[3] = Mouse liver microsomal stability; format: in vitro ADME; conditions: mouse liver microsomes; for remaining at 20 min, 1 μM: read-out: % Remaining after 20 min; for remaining at 1 h, 1 μM: 60 min, read-out: % Remaining after 60 min; for half-life: peptide 1 μM
Description: as §2, §3

[4] = human liver microsomes, peptide 1 μM, read-out: t1/2

Foxp3-Runx1 Inhibition % inhibition (100 μM) [1]	Binding to Foxp3 Ratio binding Peptide/p60 (fold change) (human FOXP3 (FOXP3-6His))	Compound	remaining at 20 min, 1 μM ([2]; human liver microsomes)	remaining at 1 h, 1 μM ([2]; human liver microsomes)	half-life [2, 4]	remaining at 20 min, 1 μM [3]	remaining at 1 h, 1 μM [3]	half-life [3]	half-life ([2]; human, microsomes)
55.6%	1.1 fold change	15 (RDAQSFRKMWPFFAM) [compound 15]							
		CSCC[C@@H]1NC(=O)[C@H](C)NC(=O)[C@H](Cc2ccccc2)NC(=O)[C@H](Cc2ccccc2)NC(=O)[C@@H]2CCCN2C(=O)[C@H](Cc2c[nH]c3ccccc23)NC(=O)[C@H](CCSC)NC(=O)[C@H](CCCCN)NC(=O)[C@H](CCCNC(=N)N)NC(=O)[C@H](Cc2ccccc2)NC(=O)[C@H](C)NC(=O)[C@H](CCC(N)=O)NC(=O)[C@H](Cc2ccccc2)NC(=O)[C@@H](C)NC(=O)[C@H](CCCNC(=N)N)NCCCNC1=O [compound 52]	76.9%	40.1%	41.4 min	98.9%	48%	46.9 min	
		CSCC[C@@H]1NC(=O)[C@H](C)NC(=O)[C@H](Cc2ccccc2)NC(=O)[C@H](Cc2ccccc2)NC(=O)[C@@H]2CCCN2C(=O)[C@H](Cc2c[nH]c3ccccc23)NC(=O)[C@H](CCSC)NC(=O)[C@H](CCCCN)NC(=O)[C@H](CCCNC(=N)N)NC(=O)[C@H](Cc2ccccc2)NC(=O)[C@H](C)NC(=O)[C@H](CCC(N)=O)NC(=O)[C@H](Cc2ccccc2)NC(=O)[C@@H](C)NC(=O)[C@H](CCCNC(=N)N)NCCNC(=O)CNC1=O [compound 53]	32.9%	2.8%		57%	3.7%	12.3 min	11.1 min
		CSCC[C@@H]1NC(=O)[C@H](C)NC(=O)[C@H](Cc2ccccc2)NC(=O)[C@H](Cc2ccccc2)NC(=O)[C@@H]2CCCN2C(=O)[C@H](Cc2c[nH]c3ccccc23)NC(=O)[C@H](CCSC)NC(=O)[C@H](CCCCN)NC(=O)[C@H](CCCNC(=N)N)NC(=O)[C@H](Cc2ccccc2)NC(=O)[C@H](C)NC(=O)[C@H](CCC(N)=O)NC(=O)[C@H](Cc2ccccc2)NC(=O)[C@@H](C)NC(=O)[C@H](CCCNC(=N)N)NCCOCCNC1=O [compound 54]	55.7%	11%	18.4 min	97.3%	30.1%	30.9 min	
